Laboratory results: US9273040B2 (Merck Sharp & Dohme Corp., priority 2011, dated 2016)
Where two headings read alike, the source gives them in different places.

Experiments:
[1] = target: T1, human Nav1.5 channels stably expressed in HEK 293 cells (Homo sapiens, UniProt Q14524); assay: PatchXpress 7000 automated patch-clamp, sodium current; type: cell-based; conditions: selectivity over Nav1.5
T1 construct: expressed in transfected cells
Excerpt: (§1) To measure state and use-dependent sodium channel inhibition, test compounds were further characterized in an automated PatchXpress® assay (Molecular Devices). Two voltage-clamp protocols were used. 1) Use-dependent protocol: Cells were held at a membrane potential 20 mV negative to the potential at which ˜50% of the channels are inactivated (V0.5 inact). A train of 30 ms depolarizations to −20 mV was applied to the cells expressing Nav1.7 at a frequency of 10 Hz. […] Data was collected in the absence and presence of drug, and after drug washout. 2) A double-pulse protocol was used to measure inactivated state block. Cells were held at a potential 20 mV negative to V0.5 inact. A 8000 ms pre-pulse 7 mV positive to V0.5 inact was given followed by a hyperpolarizing 2 ms pulse to −120 mV and a 20 ms test pulse to −20 mV. Protocol was applied to cells in the absence, presence of compound and after washout. The temperature of PatchXpress instruments was maintained at 22° C. The following recording solutions were used. Internal solution (mM): 30 CsCl, 5 HEPES, 10 EGTA, 120 CsF, 5 NaF, 2MgCl2, pH=7.3 with CsOH, 324 mosmo. External solution (mM): 120 NMDG, 40 NaCl, 1 KCl, 0.5 MgCl2, 5 HEPES, 2.7 CaCl2, pH=7.5 with NMDG-OH.
(§2) For all electrophysiology experiments, offline analysis was used to correct for current rundown and to determine percent inhibition as a function of drug concentration. IC50 values were determined by fitting to the Hill equation.

[2] = target: T2, human Nav1.7 channels stably expressed in HEK 293 cells (Homo sapiens, UniProt Q15858); assay: as above; type: cell-based; conditions: 22° C.
T2 construct: expressed in transfected cells
T2 sequence (Q15858 whole entry): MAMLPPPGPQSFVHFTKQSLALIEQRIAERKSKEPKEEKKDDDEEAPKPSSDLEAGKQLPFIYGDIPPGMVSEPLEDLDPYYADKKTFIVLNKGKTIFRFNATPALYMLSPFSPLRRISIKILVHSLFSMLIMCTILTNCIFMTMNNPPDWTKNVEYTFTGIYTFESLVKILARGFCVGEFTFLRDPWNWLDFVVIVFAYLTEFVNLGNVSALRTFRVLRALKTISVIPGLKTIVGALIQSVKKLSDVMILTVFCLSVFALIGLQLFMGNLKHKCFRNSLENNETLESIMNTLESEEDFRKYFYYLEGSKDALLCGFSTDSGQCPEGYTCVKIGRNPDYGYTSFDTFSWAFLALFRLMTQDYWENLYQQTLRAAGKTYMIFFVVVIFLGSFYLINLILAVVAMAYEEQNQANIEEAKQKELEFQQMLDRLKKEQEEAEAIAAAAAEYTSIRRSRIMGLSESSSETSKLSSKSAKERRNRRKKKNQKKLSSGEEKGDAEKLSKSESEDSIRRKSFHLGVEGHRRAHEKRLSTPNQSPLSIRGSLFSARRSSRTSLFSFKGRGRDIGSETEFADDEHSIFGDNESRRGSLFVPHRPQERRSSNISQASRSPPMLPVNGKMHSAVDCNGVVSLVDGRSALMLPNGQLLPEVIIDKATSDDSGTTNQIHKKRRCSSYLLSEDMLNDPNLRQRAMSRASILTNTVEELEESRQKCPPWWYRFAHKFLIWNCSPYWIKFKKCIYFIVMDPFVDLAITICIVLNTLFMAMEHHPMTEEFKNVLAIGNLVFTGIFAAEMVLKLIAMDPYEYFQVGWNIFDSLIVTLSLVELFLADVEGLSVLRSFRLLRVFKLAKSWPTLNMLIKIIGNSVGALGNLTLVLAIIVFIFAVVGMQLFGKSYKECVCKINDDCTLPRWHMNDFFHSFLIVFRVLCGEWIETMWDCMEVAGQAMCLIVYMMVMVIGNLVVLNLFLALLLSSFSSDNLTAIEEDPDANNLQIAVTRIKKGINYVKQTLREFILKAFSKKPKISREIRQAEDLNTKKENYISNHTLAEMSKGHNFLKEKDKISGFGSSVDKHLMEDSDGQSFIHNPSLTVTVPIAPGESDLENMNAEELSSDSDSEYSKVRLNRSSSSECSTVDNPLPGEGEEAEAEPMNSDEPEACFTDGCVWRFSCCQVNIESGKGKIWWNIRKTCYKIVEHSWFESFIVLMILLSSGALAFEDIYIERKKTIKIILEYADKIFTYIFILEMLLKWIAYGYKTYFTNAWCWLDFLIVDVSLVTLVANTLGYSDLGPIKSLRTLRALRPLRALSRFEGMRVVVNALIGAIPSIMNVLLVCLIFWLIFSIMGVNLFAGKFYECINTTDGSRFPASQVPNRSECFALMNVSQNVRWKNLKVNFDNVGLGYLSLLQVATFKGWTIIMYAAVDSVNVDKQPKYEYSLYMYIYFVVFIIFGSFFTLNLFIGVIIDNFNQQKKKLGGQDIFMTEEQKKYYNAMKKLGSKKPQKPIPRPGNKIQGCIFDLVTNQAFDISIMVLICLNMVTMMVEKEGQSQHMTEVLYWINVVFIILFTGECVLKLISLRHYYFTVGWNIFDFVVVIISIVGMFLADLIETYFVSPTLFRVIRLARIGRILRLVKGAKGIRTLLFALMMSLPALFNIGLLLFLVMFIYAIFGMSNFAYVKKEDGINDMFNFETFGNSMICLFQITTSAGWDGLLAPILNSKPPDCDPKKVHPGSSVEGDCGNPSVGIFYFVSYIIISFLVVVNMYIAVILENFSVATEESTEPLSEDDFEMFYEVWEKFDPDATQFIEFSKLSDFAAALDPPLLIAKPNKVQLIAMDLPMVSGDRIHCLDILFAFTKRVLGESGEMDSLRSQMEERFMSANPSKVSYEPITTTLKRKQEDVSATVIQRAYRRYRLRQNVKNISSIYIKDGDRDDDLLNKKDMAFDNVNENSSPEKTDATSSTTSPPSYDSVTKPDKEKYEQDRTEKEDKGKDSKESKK
Excerpt: as §1, §2

[3] = read-out: potency for the Nav 1.7 sodium ion channel (as measured by PatchXpress)

T1 sequence (Q14524 whole entry): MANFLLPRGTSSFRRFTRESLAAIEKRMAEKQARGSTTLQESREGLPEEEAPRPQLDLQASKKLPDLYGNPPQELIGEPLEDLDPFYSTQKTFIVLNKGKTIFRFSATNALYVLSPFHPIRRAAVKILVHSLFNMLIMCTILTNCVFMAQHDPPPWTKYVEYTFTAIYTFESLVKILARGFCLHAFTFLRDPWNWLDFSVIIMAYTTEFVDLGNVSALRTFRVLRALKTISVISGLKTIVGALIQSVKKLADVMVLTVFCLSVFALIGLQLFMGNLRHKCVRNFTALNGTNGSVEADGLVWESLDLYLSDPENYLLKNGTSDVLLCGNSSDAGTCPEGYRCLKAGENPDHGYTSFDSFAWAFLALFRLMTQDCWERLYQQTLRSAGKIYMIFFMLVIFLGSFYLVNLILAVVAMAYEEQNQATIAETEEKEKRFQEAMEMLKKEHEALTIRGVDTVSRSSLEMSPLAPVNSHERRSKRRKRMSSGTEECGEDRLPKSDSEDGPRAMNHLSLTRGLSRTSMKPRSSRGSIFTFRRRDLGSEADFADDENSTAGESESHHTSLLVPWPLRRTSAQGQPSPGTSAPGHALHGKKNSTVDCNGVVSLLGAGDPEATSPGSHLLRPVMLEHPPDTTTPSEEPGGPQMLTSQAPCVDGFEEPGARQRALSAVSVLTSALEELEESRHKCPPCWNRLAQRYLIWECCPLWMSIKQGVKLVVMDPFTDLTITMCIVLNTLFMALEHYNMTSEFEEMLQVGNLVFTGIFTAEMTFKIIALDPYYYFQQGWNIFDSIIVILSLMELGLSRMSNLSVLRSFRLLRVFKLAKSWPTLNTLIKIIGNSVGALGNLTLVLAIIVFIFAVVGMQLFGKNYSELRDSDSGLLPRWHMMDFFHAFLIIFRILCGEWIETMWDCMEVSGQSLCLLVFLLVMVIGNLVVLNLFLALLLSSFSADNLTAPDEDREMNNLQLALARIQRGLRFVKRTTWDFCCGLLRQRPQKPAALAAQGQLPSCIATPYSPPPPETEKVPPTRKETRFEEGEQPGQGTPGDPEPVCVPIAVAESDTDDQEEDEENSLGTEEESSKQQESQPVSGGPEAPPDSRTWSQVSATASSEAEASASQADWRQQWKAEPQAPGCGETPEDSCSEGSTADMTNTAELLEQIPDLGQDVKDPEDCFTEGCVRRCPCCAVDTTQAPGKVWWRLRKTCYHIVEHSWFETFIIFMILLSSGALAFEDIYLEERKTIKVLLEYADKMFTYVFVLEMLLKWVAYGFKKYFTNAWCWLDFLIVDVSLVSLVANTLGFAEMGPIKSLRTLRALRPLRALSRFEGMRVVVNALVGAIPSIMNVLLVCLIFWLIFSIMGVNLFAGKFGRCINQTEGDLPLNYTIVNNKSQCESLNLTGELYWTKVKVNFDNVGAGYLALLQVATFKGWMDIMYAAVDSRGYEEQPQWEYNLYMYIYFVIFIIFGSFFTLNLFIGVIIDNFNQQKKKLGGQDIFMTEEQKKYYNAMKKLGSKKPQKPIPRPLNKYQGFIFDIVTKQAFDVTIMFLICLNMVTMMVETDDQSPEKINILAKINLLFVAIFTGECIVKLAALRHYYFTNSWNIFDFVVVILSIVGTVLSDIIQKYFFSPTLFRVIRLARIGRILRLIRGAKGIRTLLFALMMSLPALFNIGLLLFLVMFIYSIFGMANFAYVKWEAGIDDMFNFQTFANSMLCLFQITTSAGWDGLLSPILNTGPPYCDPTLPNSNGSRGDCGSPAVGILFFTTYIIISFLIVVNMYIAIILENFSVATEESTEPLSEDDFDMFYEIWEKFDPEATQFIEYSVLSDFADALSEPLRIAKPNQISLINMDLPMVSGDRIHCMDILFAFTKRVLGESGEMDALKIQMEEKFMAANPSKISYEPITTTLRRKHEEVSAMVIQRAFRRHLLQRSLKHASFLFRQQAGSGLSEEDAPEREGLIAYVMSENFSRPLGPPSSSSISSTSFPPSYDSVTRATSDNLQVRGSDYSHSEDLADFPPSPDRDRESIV

In the case of `O=c1oc2cc(S(=O)(=O)Nc3ncns3)c(F)cc2n1Cc1cccc2c1CC(O)CC2` (stereo not drawn) [Compound 21-1, 5-fluoro-3-((7-hydroxy-5,6,7,8-tetrahydronaphthalen-1-yl)methyl)-2-oxo-N-(1,2,4-thiadiazol-5-yl)-2,3-dihydrobenzo[d]oxazole-6-sulfonamide], the “ratio of Nav 1.5:Nav 1.7 potency, determined by PatchXpress measurement” value (from here on “ratio of Nav 1.5:Nav 1.7 potency”) [1] is reported as 113 and the IC50 [2, 3] is reported as 121 nM.
In the case of `O=c1oc2cc(S(=O)(=O)Nc3nccs3)c(F)cc2n1C1CCCc2c(F)cc(F)cc21` (stereo not drawn) [Compound 43-9, 3-(5,7-difluoro-1,2,3,4-tetrahydronaphthalen-1-yl)-5-fluoro-2-oxo-N-1,3-thiazol-2-yl-2,3-dihydro-1,3-benzoxazole-6-sulfonamide], the “ratio of Nav 1.5:Nav 1.7 potency” value [1] is reported as 95 and the IC50 [2, 3] is reported as 67 nM.
In the case of `C[C@H](c1ccccc1C1(F)CNC1)n1c(=O)oc2cc(S(=O)(=O)Nc3nccs3)c(F)cc21` [Compound 43-23, 5-fluoro-3-{(1R)-1-[2-(3-fluoroazetidin-3-yl)phenyl]ethyl}-2-oxo-N-1,3-thiazol-2-yl-2,3-dihydro-1,3-benzoxazole-6-sulfonamide], the “ratio of Nav 1.5:Nav 1.7 potency” value [1] is reported as 5541 and the IC50 [2, 3] is reported as 4 nM.
`NC1CCc2c(cccc2Cn2c(=O)oc3cc(S(=O)(=O)Nc4ncns4)ccc32)C1` (racemic) [Compound 23-3, (+/−)-3-[(6-amino-5,6,7,8-tetrahydronaphthalen-1-yl)methyl]-2-oxo-N-1,2,4-thiadiazol-5-yl-2,3-dihydro-1,3-benzoxazole-6-sulfonamide] was tested, and the “ratio of Nav 1.5:Nav 1.7 potency” value [1] was 88 and the IC50 [2, 3] was 342 nM.
With `Cl.O=c1oc2cc(S(=O)(=O)Nc3ncns3)c(F)cc2n1Cc1cccc2c1CNCC2F` (stereo not drawn) [Compound 24-9, 5-fluoro-3-((4-fluoro-1,2,3,4-tetrahydroisoquinolin-8-yl)methyl)-2-oxo-N-(1,2,4-thiadiazol-5-yl)-2,3-dihydrobenzo[d]oxazole-6-sulfonamide hydrochloride] the “ratio of Nav 1.5:Nav 1.7 potency” value [1] was 704 and the IC50 [2, 3] was 183 nM.
With `C[C@H](c1ccccc1C#CCN)n1c(=O)oc2cc(S(=O)(=O)Nc3ncns3)c(Cl)cc21` [Compound 34-8, 3-{(1R)-1-[2-(3-aminoprop-1-yn-1-yl)phenyl]ethyl}-5-chloro-2-oxo-N-1,2,4-thiadiazol-5-yl-2,3-dihydro-1,3-benzoxazole-6-sulfonamide] the “ratio of Nav 1.5:Nav 1.7 potency” value [1] was 40 and the IC50 [2, 3] was 40 nM.
With `NC1CCc2cccc(Cn3c(=O)oc4cc(S(=O)(=O)Nc5ncns5)ccc43)c2C1` (single isomer, unassigned) [Compound 23-14, (S or R)-3-[(7-amino-5,6,7,8-tetrahydronaphthalen-1-yl)methyl]-2-oxo-N-1,2,4-thiadiazol-5-yl-2,3-dihydro-1,3-benzoxazole-6-sulfonamide] the “ratio of Nav 1.5:Nav 1.7 potency” value [1] was 393 and the IC50 [2, 3] was 75 nM.
In the case of `C[C@H](c1ccccc1C1=CCNCC1)n1c(=O)oc2cc(S(=O)(=O)Nc3ncns3)c(Cl)cc21.Cl` [Compound 34-6, (R)-5-chloro-2-oxo-3-(1-(2-(1,2,3,6-tetrahydropyridin-4-yl)phenyl)ethyl)-N-(1,2,4-thiadiazol-5-yl)-2,3-dihydrobenzo[d]oxazole-6-sulfonamide hydrochloride], the “ratio of Nav 1.5:Nav 1.7 potency” value [1] is reported as 1200 and the IC50 ([2]; potency for the Nav 1.7 sodium ion channel (as measured by PatchXpress)) is reported as 25 nM.
`C[C@H](c1ccccc1C#CCN1CCOCC1)n1c(=O)oc2cc(S(=O)(=O)Nc3ncns3)c(F)cc21` [Compound 17-2, 5-fluoro-3-{(1R)-1-[2-(3-morpholin-4-ylprop-1-yn-1-yl)phenyl]ethyl}-2-oxo-N-1,2,4-thiadiazol-5-yl-2,3-dihydro-1,3-benzoxazole-6-sulfonamide] was tested, and the “ratio of Nav 1.5:Nav 1.7 potency” value [1] was 90 and the IC50 [2, 3] was 332 nM.
For `C[C@H](c1ccccc1C#CCNS(C)(=O)=O)n1c(=O)oc2cc(S(=O)(=O)Nc3ncns3)c(Br)cc21` [Compound 36-4, 5-bromo-3-[(1R)-1-(2-{3-[(methylsulfonyl)amino]prop-1-yn-1-yl}phenyl)ethyl]-2-oxo-N-1,2,4-thiadiazol-5-yl-2,3-dihydro-1,3-benzoxazole-6-sulfonamide], the “ratio of Nav 1.5:Nav 1.7 potency” value [1] was 36 and the IC50 [2, 3] was 169 nM.
For `O=c1oc2cc(S(=O)(=O)Nc3ncns3)c(F)cc2n1Cc1cccc2cncn12` [Compound 11-12, 5-fluoro-3-(imidazo[1,5-a]pyridin-5-ylmethyl)-2-oxo-N-1,2,4-thiadiazol-5-yl-2,3-dihydro-1,3-benzoxazole-6-sulfonamide], the “ratio of Nav 1.5:Nav 1.7 potency” value [1] was 368 and the IC50 [2, 3] was 81 nM.
In the case of `CNC1CCc2cccc(Cn3c(=O)oc4cc(S(=O)(=O)Nc5ncns5)c(F)cc43)c2C1` (racemic) [Compound 23-26, (+/−)-5-fluoro-3-{[7-(methylamino)-5,6,7,8-tetrahydronaphthalen-1-yl]methyl}-2-oxo-N-1,2,4-thiadiazol-5-yl-2,3-dihydro-1,3-benzoxazole-6-sulfonamide], the “ratio of Nav 1.5:Nav 1.7 potency” value [1] is reported as 2451 and the IC50 [2, 3] is reported as 12 nM.
`O=c1oc2cc(S(=O)(=O)Nc3nccs3)c(F)cc2n1C1CC2(CCC2)Oc2ccc(F)cc21` (stereo not drawn) [Compound 43-11, 5-fluoro-3-(6-fluoro-3,4-dihydrospiro[chromene-2,1′-cyclobutan]-4-yl)-2-oxo-N-1,3-thiazol-2-yl-2,3-dihydro-1,3-benzoxazole-6-sulfonamide] was tested, and the “ratio of Nav 1.5:Nav 1.7 potency” value [1] was 196 and the IC50 [2, 3] was 41 nM.
For `O=c1oc2cc(S(=O)(=O)Nc3nccs3)c(F)cc2n1Cc1cccc2c1CNCC2F` (racemic) [Compound 43-26, (+/-)-5-fluoro-3-[(4-fluoro-1,2,3,4-tetrahydroisoquinolin-8-yl)methyl]-2-oxo-N-1,3-thiazol-2-yl-2,3-dihydro-1,3-benzoxazole-6-sulfonamide], the “ratio of Nav 1.5:Nav 1.7 potency” value [1] was 150 and the IC50 [2, 3] was 141 nM.
In the case of `C[C@H](c1ccccc1C#CCN1CCC1)n1c(=O)oc2cc(S(=O)(=O)Nc3ncns3)c(F)cc21` [Compound 17-18, 3-{(1R)-1-[2-(3-azetidin-1-ylprop-1-yn-1-yl)phenyl]ethyl}-5-fluoro-2-oxo-N-1,2,4-thiadiazol-5-yl-2,3-dihydro-1,3-benzoxazole-6-sulfonamide], the “ratio of Nav 1.5:Nav 1.7 potency” value [1] is reported as 1085 and the IC50 [2, 3] is reported as 28 nM.
`C[C@H](c1ccccc1C#CC1CNC1)n1c(=O)oc2cc(S(=O)(=O)Nc3ncns3)c(F)cc21` [Compound 17-16, 3-{(1R)-1-[2-(azetidin-3-ylethynyl)phenyl]ethyl}-5-fluoro-2-oxo-N-1,2,4-thiadiazol-5-yl-2,3-dihydro-1,3-benzoxazole-6-sulfonamide] was tested, and the “ratio of Nav 1.5:Nav 1.7 potency” value [1] was 973 and the IC50 [2, 3] was 31 nM.
With `C[C@H](c1ccccc1CN1CCC(F)C1)n1c(=O)oc2cc(S(=O)(=O)Nc3ncns3)c(F)cc21` (stereo partly drawn) [Compound 18-4, 5-fluoro-3-[(1R)-1-{2-[(3-fluoropyrrolidin-1-yl)methyl]phenyl}ethyl]-2-oxo-N-1,2,4-thiadiazol-5-yl-2,3-dihydro-1,3-benzoxazole-6-sulfonamide] the “ratio of Nav 1.5:Nav 1.7 potency” value [1] was 82 and the IC50 [2, 3] was 132 nM.
In the case of `C[C@@H](c1cccc2cncn12)n1c(=O)oc2cc(S(=O)(=O)Nc3ncns3)c(F)cc21` [Compound 15-4, 5-fluoro-3-[(1S)-1-imidazo[1,5-a]pyridin-5-ylethyl]-2-oxo-N-1,2,4-thiadiazol-5-yl-2,3-dihydro-1,3-benzoxazole-6-sulfonamide], the “ratio of Nav 1.5:Nav 1.7 potency” value [1] is reported as 60 and the IC50 [2, 3] is reported as 235 nM.
